According to patent US8329706B2, “Oxazolidinone derivatives” (Actelion Pharmaceuticals Ltd., priority 2009, dated 2012):

Columns and labels:
human orexin-1 receptor = target: T1, human orexin-1 receptor (Homo sapiens, UniProt O43613); test: FLIPR intracellular calcium assay, orexin receptor antagonistic activity (OX1); format: cell-based; settings: CHO cells expressing human orexin-1 receptor; agonist 3 nM orexin-A; normalized to on-plate reference; * geomean n = 5, *2 geomean n = 2
T1 construct: expressed in transfected cells; host or cells: CHO cells (G418 selection)
T1 sequence (O43613 1-425): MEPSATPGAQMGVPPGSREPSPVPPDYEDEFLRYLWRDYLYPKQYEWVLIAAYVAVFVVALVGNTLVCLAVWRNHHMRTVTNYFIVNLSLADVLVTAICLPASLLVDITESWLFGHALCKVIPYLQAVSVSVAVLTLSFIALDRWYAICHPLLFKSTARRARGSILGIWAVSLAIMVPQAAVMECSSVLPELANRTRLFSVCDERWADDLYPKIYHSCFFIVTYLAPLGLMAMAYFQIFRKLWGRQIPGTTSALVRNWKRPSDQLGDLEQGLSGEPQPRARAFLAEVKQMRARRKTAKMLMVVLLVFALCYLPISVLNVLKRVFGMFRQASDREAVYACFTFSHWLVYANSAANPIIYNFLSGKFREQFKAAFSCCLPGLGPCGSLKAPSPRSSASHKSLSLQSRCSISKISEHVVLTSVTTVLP
Procedure: (§1) The orexin receptor antagonistic activity of the compounds of formula (I) is determined in accordance with the following experimental method.
(§2) Chinese hamster ovary (CHO) cells expressing the human orexin-1 receptor and the human orexin-2 receptor, respectively, are grown in culture medium (Ham F-12 with L-Glutamine) containing 300 μg/ml G418, 100 U/ml penicillin, 100 μg/ml streptomycin and 10% heat inactivated fetal calf serum (FCS). The cells are seeded at 20′000 cells/well into 384-well black clear bottom sterile plates (Greiner). The seeded plates are incubated overnight at 37° C. in 5% CO2.
(§3) Human orexin-A as an agonist is prepared as 1 mM stock solution in MeOH:water (1:1), diluted in HBSS containing 0.1% bovine serum albumin (BSA), NaHCO3: 0.375 g/l and 20 mM HEPES for use in the assay at a final concentration of 3 nM.
(§4) Antagonists are prepared as 10 mM stock solution in DMSO, then diluted in 384-well plates using DMSO followed by a transfer of the dilutions into in HBSS containing 0.1% bovine serum albumin (BSA), NaHCO3: 0.375 g/l and 20 mM HEPES. On the day of the assay, 50 μl of staining buffer (HBSS containing 1% FCS, 20 mM HEPES, NaHCO3: 0.375 g/l, 5 mM probenecid (Sigma) and 3 μM of the fluorescent calcium indicator fluo-4 AM (1 mM stock solution in DMSO, containing 10% pluronic) is added to each well. The 384-well cell-plates are incubated for 50 min at 37° C. in 5% CO2 followed by equilibration at rt for 30-120 min before measurement.
(§5) Within the Fluorescent Imaging Plate Reader (FLIPR Tetra, Molecular Devices), antagonists are added to the plate in a volume of 10 μl/well, incubated for 10 min and finally 10 μl/well of agonist is added. Fluorescence is measured for each well at 1 second intervals, and the height of each fluorescence peak is compared to the height of the fluorescence peak induced by 3 nM orexin-A with vehicle in place of antagonist. For each antagonist, the IC50 value (the concentration of compound needed to inhibit 50% of the agonistic response) is determined and normalized using the obtained IC50 value of a on-plate reference compound. Optimized conditions were achieved by adjustment of pipetting speed and cell splitting regime. The calculated IC50 values of the compounds may fluctuate depending on the daily cellular assay performance. Fluctuations of this kind are known to those skilled in the art.

human orexin-2 receptor = target: T2, human orexin-2 receptor (Homo sapiens, UniProt O43614); test: FLIPR intracellular calcium assay, orexin receptor antagonistic activity (OX2); format: cell-based; settings: CHO cells expressing human orexin-2 receptor; agonist 3 nM orexin-A; normalized to on-plate reference; * geomean n = 5, *2 geomean n = 2
T2 construct: expressed in transfected cells; host or cells: CHO cells (G418 selection)
T2 sequence (O43614 1-444): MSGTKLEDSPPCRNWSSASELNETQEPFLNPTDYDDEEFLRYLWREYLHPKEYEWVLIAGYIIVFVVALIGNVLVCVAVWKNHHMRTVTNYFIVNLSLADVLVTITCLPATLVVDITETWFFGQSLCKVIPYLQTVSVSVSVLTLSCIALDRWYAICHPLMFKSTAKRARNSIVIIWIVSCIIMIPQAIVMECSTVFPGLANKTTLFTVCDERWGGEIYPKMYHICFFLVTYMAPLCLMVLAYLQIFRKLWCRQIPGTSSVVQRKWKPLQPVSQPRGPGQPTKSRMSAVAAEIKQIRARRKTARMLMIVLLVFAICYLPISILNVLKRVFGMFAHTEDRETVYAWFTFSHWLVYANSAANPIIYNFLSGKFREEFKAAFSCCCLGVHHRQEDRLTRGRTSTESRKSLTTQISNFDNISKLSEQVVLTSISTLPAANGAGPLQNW
Procedure: as §1, §2, §3, §4, §5

Molecule	IC50 (human orexin-1 receptor) [nM]	IC50 (human orexin-2 receptor) [nM]
3-(3-Chloro-4-methyl-benzyl)-2-(2,6-dimethoxy-phenyl)-oxazolidin-4-one [Example 43]	553	349
CCOc1ccccc1C1OCC(=O)N1Cc1ccc(Cl)c(C(F)(F)F)c1 (stereo not drawn) [Example 1, 3-(4-Chloro-3-trifluoromethyl-benzyl)-2-(2-ethoxy-phenyl)-oxazolidin-4-one]	6490	263
CCOc1ccccc1C1OCC(=O)N1Cc1ccccc1C (stereo not drawn) [Example 2, 2-(2-Ethoxy-phenyl)-3-(2-methyl-benzyl)-oxazolidin-4-one]	> 10000	223
CCOc1ccccc1C1OCC(=O)N1Cc1ccc(C(F)(F)F)cc1 (stereo not drawn) [Example 3, 2-(2-Ethoxy-phenyl)-3-(4-trifluoromethyl-benzyl)-oxazolidin-4-one]	9990	230
CCOc1ccccc1C1OCC(=O)N1Cc1cccc(OC)c1 (stereo not drawn) [Example 4, 2-(2-Ethoxy-phenyl)-3-(3-methoxy-benzyl)-oxazolidin-4-one]	> 10000	705
CCOc1ccccc1C1OCC(=O)N1Cc1cccc(C(F)(F)F)c1 (stereo not drawn) [Example 5, 2-(2-Ethoxy-phenyl)-3-(3-trifluoromethyl-benzyl)-oxazolidin-4-one]	> 10000	462
CCOc1ccccc1C1OCC(=O)N1Cc1ccc(OC(F)(F)F)cc1 (stereo not drawn) [Example 6, 2-(2-Ethoxy-phenyl)-3-(4-trifluoromethoxy-benzyl)-oxazolidin-4-one]	> 10000	55
CCOc1ccccc1C1OCC(=O)N1Cc1cccc(OC(F)(F)F)c1 (stereo not drawn) [Example 7, 2-(2-Ethoxy-phenyl)-3-(3-trifluoromethoxy-benzyl)-oxazolidin-4-one]	6810	74
CCOc1ccccc1C1OCC(=O)N1Cc1ccc(F)c(C)c1 (stereo not drawn) [Example 8, 2-(2-Ethoxy-phenyl)-3-(4-fluoro-3-methyl-benzyl)-oxazolidin-4-one]	9170	584
CCOc1ccccc1C1OCC(=O)N1Cc1ccc(F)c(Cl)c1 (stereo not drawn) [Example 9, 3-(3-Chloro-4-fluoro-benzyl)-2-(2-ethoxy-phenyl)-oxazolidin-4-one]	8740	79
CCOc1ccccc1C1OCC(=O)N1Cc1cc(C(F)(F)F)cc(Cl)c1F (stereo not drawn) [Example 10, 3-(3-Chloro-2-fluoro-5-trifluoromethyl-benzyl)-2-(2-ethoxy-phenyl)-oxazolidin-4-one]	8410	693
CCOc1ccccc1C1OCC(=O)N1Cc1cccc(C(F)(F)F)c1C (stereo not drawn) [Example 11, 2-(2-Ethoxy-phenyl)-3-(2-methyl-3-trifluoromethyl-benzyl)-oxazolidin-4-one]	5410	385
CCOc1ccccc1C1OCC(=O)N1Cc1cc(C(F)(F)F)ccc1Cl (stereo not drawn) [Example 12, 3-(2-Chloro-5-trifluoromethyl-benzyl)-2-(2-ethoxy-phenyl)-oxazolidin-4-one]	4040	590
CCOc1ccccc1C1OCC(=O)N1Cc1cc(C(F)(F)F)ccc1F (stereo not drawn) [Example 13, 2-(2-Ethoxy-phenyl)-3-(2-fluoro-5-trifluoromethyl-benzyl)-oxazolidin-4-one]	> 10000	290
CCOc1ccccc1C1OCC(=O)N1Cc1ccc(F)c(C(F)(F)F)c1 (stereo not drawn) [Example 14, 2-(2-Ethoxy-phenyl)-3-(4-fluoro-3-trifluoromethyl-benzyl)-oxazolidin-4-one]	> 10000	169
CCOc1ccccc1C1OCC(=O)N1Cc1ccc(C(F)(F)F)c(F)c1 (stereo not drawn) [Example 15, 2-(2-Ethoxy-phenyl)-3-(3-fluoro-4-trifluoromethyl-benzyl)-oxazolidin-4-one]	> 10000	359
CCOc1ccccc1C1OCC(=O)N1Cc1c(F)ccc(F)c1Cl (stereo not drawn) [Example 16, 3-(2-Chloro-3,6-difluoro-benzyl)-2-(2-ethoxy-phenyl)-oxazolidin-4-one]	590	3810
CCOc1ccccc1C1OCC(=O)N1Cc1ccc(Cl)c(F)c1 (stereo not drawn) [Example 17, 3-(4-Chloro-3-fluoro-benzyl)-2-(2-ethoxy-phenyl)-oxazolidin-4-one]	9370	627
CCOc1ccccc1C1OCC(=O)N1Cc1ccc(OC(F)(F)F)c(Cl)c1 (stereo not drawn) [Example 18, 3-(3-Chloro-4-trifluoromethoxy-benzyl)-2-(2-ethoxy-phenyl)-oxazolidin-4-one]	8790	26
CCOc1ccccc1C1OCC(=O)N1Cc1ccc(Cl)cc1F (stereo not drawn) [Example 19, 3-(4-Chloro-2-fluoro-benzyl)-2-(2-ethoxy-phenyl)-oxazolidin-4-one]	9600	586
CCOc1ccccc1C1OCC(=O)N1Cc1ccccc1F (stereo not drawn) [Example 20, 2-(2-Ethoxy-phenyl)-3-(2-fluoro-benzyl)-oxazolidin-4-one]	> 10000	262
CCOc1ccccc1C1OCC(=O)N1Cc1ccc(Cl)cc1 (stereo not drawn) [Example 21, 3-(4-Chloro-benzyl)-2-(2-ethoxy-phenyl)-oxazolidin-4-one]	> 10000	696
CCOc1ccccc1C1OCC(=O)N1Cc1ccc(C(F)(F)F)cc1F (stereo not drawn) [Example 22, 2-(2-Ethoxy-phenyl)-3-(2-fluoro-4-trifluoromethyl-benzyl)-oxazolidin-4-one]	> 10000	839
CCOc1ccccc1C1OCC(=O)N1Cc1c(Cl)cccc1Cl (stereo not drawn) [Example 23, 3-(2,6-Dichloro-benzyl)-2-(2-ethoxy-phenyl)-oxazolidin-4-one]	1840	787
CCOc1ccccc1C1OCC(=O)N1Cc1cccc(C)c1 (stereo not drawn) [Example 24, 2-(2-Ethoxy-phenyl)-3-(3-methyl-benzyl)-oxazolidin-4-one]	> 10000	363
CCOc1ccccc1C1OCC(=O)N1Cc1ccc(F)cc1 (stereo not drawn) [Example 25, 2-(2-Ethoxy-phenyl)-3-(4-fluoro-benzyl)-oxazolidin-4-one]	> 10000	199
CCOc1ccccc1C1OCC(=O)N1Cc1ccc(F)c(F)c1 (stereo not drawn) [Example 26, 3-(3,4-Difluoro-benzyl)-2-(2-ethoxy-phenyl)-oxazolidin-4-one]	> 10000	652
CCOc1ccccc1C1OCC(=O)N1Cc1ccc(OC)cc1 (stereo not drawn) [Example 27, 2-(2-Ethoxy-phenyl)-3-(4-methoxy-benzyl)-oxazolidin-4-one]	> 10000	353
CCOc1ccccc1C1OCC(=O)N1Cc1cc(C)ccc1C(F)(F)F (stereo not drawn) [Example 28, 2-(2-Ethoxy-phenyl)-3-(5-methyl-2-trifluoromethyl-benzyl)-oxazolidin-4-one]	8020	661
CCOc1ccccc1C1OCC(=O)N1Cc1ccc(Cl)c(Cl)c1 (stereo not drawn) [Example 29, 3-(3,4-Dichloro-benzyl)-2-(2-ethoxy-phenyl)-oxazolidin-4-one]	> 10000	696
